# From paper PMC6651024, “LIR Motif-Containing Hyperdisulfide β-Ginkgotide is Cytoprotective, Adaptogenic, and Scaffold-Ready” (Molecules, 2019)
# Entries after “also recorded” stand apart in the source; their conditions may differ. Where a SMILES comes first, the peptide text is derived from it. The star is where a group is joined. Cam = NC(=O)C*
# Key:
# SH-SY5Y cells [1] = assay: LDH release cytotoxicity assay, SH-SY5Y; assay type: cell-based, mouse; conditions: 10 µM peptide, 48 h, 37 °C, LDH kit, 450 nm, triplicates
# Text: (§1) In addition, β-gB1 is non-toxic to Vero and BHK (baby hamster kidney) cell lines based on an MTT assay. […] LDH is a cytoplasmic enzyme which is rapidly released into the cell culture medium upon plasma membrane damage and is widely used as a marker for cytotoxicity. Thus, an LDH-release assay measures the level of plasma membrane damage to a cell population.
# (§2) Rat cardio-myoblast cells (H9c2) and […] neuron-like SH-SY5Y cells were purchased from ATCC and maintained in DMEM (Dulbecco’s modified eagle medium) medium supplemented with 10% fetal bovine serum (FBS), 10,000 U/mL of penicillin, and 10,000 µg/mL of streptomycin at 37 °C, 5% CO2.
# (§3) An LDH release assay was performed using the CytoSelect™ LDH cytotoxicity assay kit (CBA-241, Cell Biolabs, Inc., San Diego, CA, USA). In brief, cells were cultured in DMEM with or without 10 µM of β-gB1 and S-alkylated β-gB1 (β-gB1Alk) for 48 h at 37 °C and 5% CO2. PBS was used for the vehicle control experiment. The culture medium was transferred and mixed with the LDH assay reagent in a ratio of 9:1. The reaction mixture was incubated at 37 °C for 2 h, and colorimetric quantification was performed using a 450 nm wavelength. The assay was performed in experimental triplicates, and statistical calculations and bar graphs were done using GraphPad Prism software (Version 6.01). […]
# H9c2 cells [2] = assay: MTT-based cell proliferation assay under normoxia, H9c2; parameters: species or system rat; conditions: H9c2, 10 µM peptide, 48 h, triplicates
# Text: as §1, §2
# (§4) Cells were cultured in DMEM with or without β-gB1/S-alkylated β-gB1 (β-gB1Alk) for 48 h under normoxia, hypoxia, and hypoxia-reoxygenation conditions. Phosphate-buffered saline (PBS) was used as a vehicle control. After 48 h, MTT (3-(4,5-dimethylthiazol-2-yl)-2,5-diphenyltetrazolium bromide) reagent was added with a final concentration of 0.5 mg/mL, and it was incubated at 37 °C for 2 h. The culture medium was then aspirated, and purple formazan crystals were dissolved in DMSO for colorimetric quantification at 570 nm using a microplate reader with a reference wavelength of 630 nm. […]
# H9c2 cells [3] = assay: LDH release cytotoxicity assay, H9c2; assay type: cell-based, rat; conditions: H9c2, 10 µM peptide, 48 h, 37 °C; LDH kit, 450 nm; triplicates
# Text: as §1, §2, §3
# pepsin = target: T1, pepsin (Sus scrofa, UniProt P00791); assay: Enzymatic (proteolytic) stability against pepsin; assay type: in vitro ADME; conditions: 37 °C, MALDI-TOF MS and C18 RP-HPLC
# T1 construct: purchased Sigma-Aldrich
# T1 sequence (P00791 60-385): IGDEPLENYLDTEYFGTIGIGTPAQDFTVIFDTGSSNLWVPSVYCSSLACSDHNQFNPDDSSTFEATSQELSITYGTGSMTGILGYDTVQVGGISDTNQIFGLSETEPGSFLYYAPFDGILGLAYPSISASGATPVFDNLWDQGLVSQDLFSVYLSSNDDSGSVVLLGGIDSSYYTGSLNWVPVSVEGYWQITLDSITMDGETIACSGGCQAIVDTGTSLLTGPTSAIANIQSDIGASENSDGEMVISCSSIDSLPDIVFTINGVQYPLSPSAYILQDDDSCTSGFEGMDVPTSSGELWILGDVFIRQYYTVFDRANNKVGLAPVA
# Protocol: (§5) To assess the proteolytic stability of β-gB1, it was treated with trypsin or pepsin for 6 h. […] Similarly, the S-alkylated β-gB1 was degraded completely by pepsin within 30 min. […] This is in agreement with other plant CRPs that contain a compact structure, whose proteolytic stability was examined up to six hours treatment.
# (§6) The folded β-gB1 (28 µg) was added to 100 μL of a 0.1 M ammonium bicarbonate buffer (pH 7.8) containing 800 U/mL of trypsin or 4 mg/mL of pepsin and incubated at 37 °C for 6 h. At each time-point (0, 1, 2, 4, and 6 h), 20 µL of the treated sample was aliquoted and quenched by adding 5 µL of 1 M hydrochloric acid or 0.8 μL of 1 M sodium hydroxide. The reduced β-gB1 was alkylated with iodoacetamide (S-alkylated β-gB1) and used as a control in this study. The reaction mixture was analyzed by MALDI-TOF MS and C18-reversed-phase HPLC to determine its stability.
# SH-SY5Y cells [4] = assay: MTT-based cell proliferation assay under normoxia, SH-SY5Y; parameters: species or system human; conditions: 10 µM peptide, 48 h, triplicates
# Text: as §1, §2, §4
# trypsin = assay: Enzymatic (proteolytic) stability against trypsin; assay type: in vitro ADME; conditions: trypsin, 37 °C, five minute treatment; MALDI-TOF MS and C18 RP-HPLC
# Protocol: as §5, §6
compound,measurement,setting,value
"CC[C@H](C)[C@H](NC(=O)[C@H](CSCC(N)=O)NC(=O)CNC(=O)[C@H](Cc1ccc(O)cc1)NC(=O)[C@H](CCC(=O)O)NC(=O)[C@H](CC(=O)O)NC(=O)[C@H](CC(C)C)NC(=O)[C@H](Cc1ccc(O)cc1)NC(=O)[C@H](CSCC(N)=O)NC(=O)[C@H](CSCC(N)=O)NC(=O)[C@H](CCCNC(=N)N)NC(=O)[C@H](CCCCN)NC(=O)[C@H](CSCC(N)=O)NC(=O)CNC(=O)[C@@H](NC(=O)[C@H](CCC(=O)O)NC(=O)[C@@H](N)Cc1ccc(O)cc1)[C@@H](C)O)C(=O)N[C@@H](CCCNC(=N)N)C(=O)N[C@@H](CSCC(N)=O)C(=O)N[C@@H](CSCC(N)=O)C(=O)O [S-alkylated β-gB1, reference compound] (H-YETGC(Cam)KRC(Cam)C(Cam)YLDEYGC(Cam)IRC(Cam)C(Cam)-OH)",Cytotoxicity / cell-membrane damage by LDH release,SH-SY5Y cells [1],no significant cytotoxicity or cell-membrane damaging effects
same,Cell viability (growth or death) under normoxia,H9c2 cells [2],No change in cell viability; also recorded: no significant effect on the growth or death
same,Cytotoxicity / cell-membrane damage by LDH release,H9c2 cells [3],no significant cytotoxicity or cell-membrane damaging effects
same,Time to complete degradation by pepsin,pepsin,≤ 30 min
same,Cell viability (growth or death) under normoxia,SH-SY5Y cells [4],No change in cell viability; also recorded: no significant effect on the growth or death
same,Degradation by trypsin after five minute treatment,trypsin,completely degraded
